Common to all, as to type: physicochemical
A short description of series [1]: Automated moisture sorption/desorption (MB / DVS). Conditions: for wt loss upon equilibration at 5% RH: moisture balance; for Post-MB XRPD / Final Form post moisture sorption/desorption: sorption from 5% RH to 95% RH, desorption from 95% RH to 5% RH. The method, then:
Automated Moisture Sorption/Desorption Moisture sorption/desorption data were collected on a VTI SGA-100 Vapor Sorption Analyzer. Sorption and desorption data were collected over a range of 5% to 95% relative humidity (RH) at 10% RH intervals under a nitrogen purge. Samples were not dried prior to analysis. Equilibrium criteria used for analysis were less than 0.0100% weight change in 5 minutes, with a maximum equilibration time of 3 hours if the weight criterion was not met. Data were not corrected for the initial moisture content of the samples. NaCl and PVP were used as calibration standards.

Series [2] in a line: Milling experiments for amorphous rifaximin. The conditions noted are these: scraped sides. The method, then: (§1) Vapor stressing experiments were done on amorphous material from two preparations: lyophilization from p-dioxane:water 1:1 and crash precipitation from ethyl acetate with heptane. […] The majority of the stressed samples appeared as clear red solutions after 6 days. Those solutions were placed in vials of antisolvent for vapor diffusion. Dry and wet milling experiments were conducted on amorphous materials from the two preparations mentioned above. Amorphous materials were recovered from the dry milling experiments.
A solid sample of rifaximin was charged to a milling container with a milling ball. Samples were milled for 5 or 15 minute intervals (2×5 minutes, 2×15 minutes, and 3×15 minutes) at 30 Hz using a Retsch MM200 mixer mill. Solids were scraped from the sides of the vial after each interval.

Series [3] can be described thus: Stressing under various relative humidities (solid form by XRPD). Conditions: for RH stability: solid form change after exposing to 58% RH / RH stability: solid form change after exposing to 75% RH: am = amorphous. The method, then: Stressing Under Various Relative Humidities (RH)
The jar was sealed and stored at either ambient temperature or in an oven at elevated temperature.
X-ray powder diffraction (XRPD) analyses were performed using a Shimadzu XRD-6000 X-ray powder diffractometer using Cu Kα radiation. The instrument is equipped with a long fine focus X-ray tube. The tube voltage and amperage were set to 40 kV and 40 mA, respectively. The divergence and scattering slits were set at 1° and the receiving slit was set at 0.15 mm. Diffracted radiation was detected by a NaI scintillation detector. A θ-2θ continuous scan at 3°/min (0.4 sec/0.02° step) from 2.5 to 40°2θ was used. A silicon standard was analyzed to check the instrument alignment. Data were collected and analyzed using XRD-6100/7000 v. 5.0. Samples were prepared for analysis by placing them in a sample holder.
X-ray powder diffraction (XRPD) analyses were performed using an Inel XRG-3000 diffractometer equipped with a CPS (Curved Position Sensitive) detector with a 2θ range of 120°. Real time data were collected using Cu—Kα radiation starting at approximately 4° 2θ at a resolution of 0.03° 2θ. The tube voltage and amperage were set to 40 kV and 30 mA, respectively. The monochromator slit was set at 5 mm by 160 μm. […] Samples were prepared for analysis by packing them into thin-walled glass capillaries. Each capillary was mounted onto a goniometer head that is motorized to permit spinning of the capillary during data acquisition. The samples were analyzed for 300 sec. Instrument calibration was performed using a silicon reference standard.

Series [4] can be described thus: Stressing of amorphous rifaximin (vapor stress, vapor diffusion). Conditions: for form from vapor diffusion experiment: water as an antisolvent. The method, then:
as §1

Series [5] in a line: Rifaximin drying experiments (solid form by XRPD). Conditions: for solid form after vacuum dried: vacuum dried (Table 1); for XRPD Form: vac oven 50° C., 1 day. The text has this: Dried materials obtained by vacuum drying or heating the hydrates were labeled “dry”. […] After a portion of the rifaximin was removed for XRPD analysis the remainder of the sample was dried under vacuum at ambient temperature for approximately one day. Solids were stored in a dessicator prior to analysis by XRPD. (FIG. 9)

Setting [6] is: first amorphous sample of Table 3 (footnote c, 3436-54).
Setting [7] is: second amorphous sample of Table 3 (footnote d, 3436-55).

For the molecule `CO[C@H]1/C=C/O[C@@]2(C)Oc3c(C)c(O)c4c(O)c(c5c(nc6cc(C)ccn65)c4c3C2=O)NC(=O)/C(C)=C\C=C\[C@H](C)[C@H](O)[C@@H](C)[C@@H](O)[C@@H](C)[C@H](OC(C)=O)[C@@H]1C` [lyophilized amorphous rifaximin, Rifaximin], in series [1], the hygroscopicity result is given as “moderately hygroscopic”.

Take `CO[C@H]1/C=C/O[C@@]2(C)Oc3c(C)c(O)c4c(O)c(c5c(nc6cc(C)ccn65)c4c3C2=O)NC(=O)/C(C)=C\C=C\[C@H](C)[C@H](O)[C@@H](C)[C@@H](O)[C@@H](C)[C@H](OC(C)=O)[C@@H]1C` [amorphous, Rifaximin]: the “XRPD Result after milling” value in series [2] (sample source CP from EtOAc with heptane, 10 min. at 30 Hz) is given as “amor-”; in series [2] (sample source lyophilization from p-dioxane: water 1:1, 10 min. at 30 Hz), “amor-”. Besides, in series [3] (58% RH for 8 days), the “form by XRPD analysis after storage” value is on record as “remained amorphous”. Also, the “RH stability: solid form change after exposing to 58% RH” value in series [3] is on record as “am”. Also, in series [3], the “RH stability: solid form change after exposing to 75% RH” value is recorded as “am”. Besides, the “XRPD Result” value in series [4] (DCM, VD w/ IPE, 11 days) is “amorphous”; in series [4] (MEK, VD w/ IPE, 11 days), “amorphous”; in series [4] (toluene, VS, RT, 6 days, Amorphous Materials) it was “amorphous”; in series [4] (toluene, VS, RT, 6 days, listed as amorphous material), “no peaks”; in series [4] (water, VS, RT, 15 days), “amorphous”. Besides, the “form from vapor diffusion experiment” value in series [4] (methanol) and in series [4] (tetrahydrofuran) was “Form β” in each case. Besides, the “DVS weight gain from 5-95% RH” value in series [1] (setting [6]) worked out at 8.364% eight gain from 5-95%; in series [1] (setting [7]), 7.843% weight gain from 5-. Further, the “DVS weight loss from 95-5% RH” value in series [1] (setting [6]) is 10.989% weight loss from 95-; in series [1] (setting [7]), 9.172% weight loss from 95-5%. For the same molecule, the “wt loss upon equilibration at 5% RH” value in series [1] (listed as Rifaximin Amorphous) is reported as 0.7% wt loss upon equilibration at 5% RH. Also, the “Post-MB XRPD / Final Form post moisture sorption/desorption” value in series [1] (listed as Amorphous), in series [1] (listed as Amorphous rifaximin) and in series [1] (listed as Rifaximin Amorphous) was “amorphous” in each case.

`CO[C@H]1/C=C/O[C@@]2(C)Oc3c(C)c(O)c4c(O)c(c5c(nc6cc(C)ccn65)c4c3C2=O)NC(=O)/C(C)=C\C=C\[C@H](C)[C@H](O)[C@@H](C)[C@@H](O)[C@@H](C)[C@H](OC(C)=O)[C@@H]1C` [Form β-2, Rifaximin]: the “solid form after vacuum dried” value in series [5] (listed as β-2) is recorded as “α dry”. For the same molecule, in series [3] (studied at 20% RH (footnote d)), the “RH stability: solid form change” value was “α^d”.

Consider `CO[C@H]1/C=C/O[C@@]2(C)Oc3c(C)c(O)c4c(O)c(c5c(nc6cc(C)ccn65)c4c3C2=O)NC(=O)/C(C)=C\C=C\[C@H](C)[C@H](O)[C@@H](C)[C@@H](O)[C@@H](C)[C@H](OC(C)=O)[C@@H]1C` [Form ζ, Rifaximin], for which, in series [5], the “solid form after vacuum dried” value is “η or and γ + η”. Also, the “XRPD Form / Final Form after stability chamber” value in series [3] (75% RH at 40° C., 1 day) is “ζ + γ^e”.

With `CO[C@H]1/C=C/O[C@@]2(C)Oc3c(C)c(O)c4c(O)c(c5c(nc6cc(C)ccn65)c4c3C2=O)NC(=O)/C(C)=C\C=C\[C@H](C)[C@H](O)[C@@H](C)[C@@H](O)[C@@H](C)[C@H](OC(C)=O)[C@@H]1C` [Form α-dry, Rifaximin], the “XRPD Form” value in series [5] and in series [5] (vac oven 60° C.) was “α dry” each time. The “solid form after vacuum dried” value in series [5] (listed as α dry) was “α dry”. For the same molecule, the “Final Form” value in series [3] (33% RH, 2 days) is given as “α”; in series [3] (33% RH, 7 days), “α”; in series [3] (43% RH, 4 days), “α + β”; in series [3] (43% RH, 11 days) it was “β + (α)”. Besides, in series [3] (listed as α dry), the “RH stability: solid form change after exposing to 58% RH” value was “β”. The “RH stability: solid form change after exposing to 75% RH” value in series [3] (listed as α dry) is recorded as “β”. For the same molecule, the “RH stability: solid form change after exposing to 94% RH” value in series [3] (94% RH) is on record as “β”. For the same molecule, the “Post-MB XRPD / Final Form post moisture sorption/desorption” value in series [1] (listed as α dry) is “α dry”.

In the case of `CO[C@H]1/C=C/O[C@@]2(C)Oc3c(C)c(O)c4c(O)c(c5c(nc6cc(C)ccn65)c4c3C2=O)NC(=O)/C(C)=C\C=C\[C@H](C)[C@H](O)[C@@H](C)[C@@H](O)[C@@H](C)[C@H](OC(C)=O)[C@@H]1C` [Form η, Rifaximin], in series [5] (listed as η), the “solid form after vacuum dried” value was “η”.

On to `CO[C@H]1/C=C/O[C@@]2(C)Oc3c(C)c(O)c4c(O)c(c5c(nc6cc(C)ccn65)c4c3C2=O)NC(=O)/C(C)=C\C=C\[C@H](C)[C@H](O)[C@@H](C)[C@@H](O)[C@@H](C)[C@H](OC(C)=O)[C@@H]1C` [crash amorphous rifaximin, Rifaximin], for which, in series [1], the hygroscopicity result is given as “moderately hygroscopic”.

For `CO[C@H]1/C=C/O[C@@]2(C)Oc3c(C)c(O)c4c(O)c(c5c(nc6cc(C)ccn65)c4c3C2=O)NC(=O)/C(C)=C\C=C\[C@H](C)[C@H](O)[C@@H](C)[C@@H](O)[C@@H](C)[C@H](OC(C)=O)[C@@H]1C` [Form γ, Rifaximin, reference compound], in series [1], the hygroscopicity entry was “hygroscopic” and the “wt loss upon equilibration at 5% RH” value came out at 2.4%.

For the molecule `CO[C@H]1/C=C/O[C@@]2(C)Oc3c(C)c(O)c4c(O)c(c5c(nc6cc(C)ccn65)c4c3C2=O)NC(=O)/C(C)=C\C=C\[C@H](C)[C@H](O)[C@@H](C)[C@@H](O)[C@@H](C)[C@H](OC(C)=O)[C@@H]1C` [Form β-1, Rifaximin], in series [3] (listed as β-1), the “RH stability: solid form change after exposing to 58% RH” value is “β + pk” and the “RH stability: solid form change after exposing to 75% RH” value is reported as “β”.

Consider `CO[C@H]1/C=C/O[C@@]2(C)Oc3c(C)c(O)c4c(O)c(c5c(nc6cc(C)ccn65)c4c3C2=O)NC(=O)/C(C)=C\C=C\[C@H](C)[C@H](O)[C@@H](C)[C@@H](O)[C@@H](C)[C@H](OC(C)=O)[C@@H]1C` [Form β, Rifaximin, reference compound], for which, in series [3] (P2O5, 4 days), the “XRPD Form” value is listed as “α dry”.

The values above are taken from patent US8754098B2 (Salix Pharmaceuticals, Ltd., priority 2008, dated 2014).
